Molecules are shown by their SMILES. Like-named read-outs stand apart in the source and are kept apart here.

The target in this assay is catalytic domain (Met80-Gly242) of human neutrophil collagenase (Homo sapiens, UniProt P22894). The class given is biochemical. To be noted: towards HNC, 8 nM enzyme, 10 µM DNP-Pro-Leu-Gly-Leu-Trp-Ala-D-Arg-NH2, 50 mM Tris/HCl pH 7.6, 25°C.
Sequence of catalytic domain (Met80-Gly242) of human neutrophil collagenase (P22894 100-262): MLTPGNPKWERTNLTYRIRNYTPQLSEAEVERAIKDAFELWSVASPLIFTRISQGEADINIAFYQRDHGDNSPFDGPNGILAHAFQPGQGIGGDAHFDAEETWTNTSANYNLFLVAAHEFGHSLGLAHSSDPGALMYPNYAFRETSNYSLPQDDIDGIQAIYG

Method: Determination of the inhibitory effect (enzyme assay)
In order to determine the inhibition of MMPs, for example HNC, the catalytic domain (isolation and purification see example 1) is incubated with inhibitors having various concentrations. […] The synthetic MMP substrate is a heptapeptide which is coupled, at the C-terminus, with DNP (Dinitrophenol). Said DNP residue quenches by steric hindrance the fluorescence of the adjacent tryptophane of the heptapeptide. After cleavage of a tripeptide which includes the DNP group, the tryptophane fluorescence increases. […] The reaction was started directly by giving the substrate into the solution. The cleavage of the fluorogenic substrate was followed by fluorescence spectroscopy with an excitation and emission wavelength of 280 and 350 nm, respectively. The IC50 value was calculated as the inhibitor concentration, which is necessary to decrease the velocity of the reaction to the half in comparison to the reaction without inhibitor.

Turning to `O=C(NO)C(CCc1ccccc1)C(=O)NCCCc1ccccc1` (racemic) [Example 3, (±)-HONH-Mal(CH2CH2-C6H5)-NH-(CH2)3-C6H5], the IC50 (read-out: IC50) was 560 nM.
Molecule `CC(C)CC(C(=O)NO)C(=O)NCCCc1ccccc1` (racemic) [Example 1, (±)-HONH-Mal(iBu)-NH-(CH2)3-C6H5] displayed an IC50 of 620 nM.
For the molecule `CCCCCCCCNC(=O)C(CC(C)C)C(=O)NO` (racemic) [Example 2, (±)-HONH-Mal(iBu)-NH-(CH2)7-CH3], the IC50 (read-out: IC50) turned out to be 300 nM.
Same read-out and setting: to `O=C(NO)C(Cc1ccccc1)C(=O)NCCCc1ccccc1` (racemic) [Example 4, (±)-HONH-Mal(Bn)-NH-(CH2)3-C6H5] belongs 640 nM.

The term IC50 denotes the concentration at which inhibition is half-maximal.
